Marks after values point to notes of the source that are not given here. Each block holds one compound with its values, some of them ahead of it.
Test: Measurement of logP values by HPLC on reversed phase columns (EEC directive 79/831 Annex V.A8)
Format: physicochemical

- logP (pH 2.7): 1.82
SMILES: CCN(C)C(=O)c1cc(-c2ncnc(Nc3ccc(OC)nc3)n2)ccn1 [Example C10]

- logP (pH 2.7): 3.15
SMILES: CCCN(C)C(=S)c1cc(-c2ncnc(Nc3cccc(OC)c3)n2)ccn1 [Example B283]

- logP (pH 2.7): 3.76
SMILES: CN(CC1CC1)C(=S)c1cc(-c2ncnc(Nc3cccc(Cl)c3)n2)ccn1 [Example B330]

- logP (pH 2.7): 3.35
SMILES: CCC(CC#N)NC(=O)c1cc(-c2ncnc(Nc3cccc(Cl)c3)n2)ccn1 (stereo not drawn) [Example B95]

- logP (pH 2.7): 3.23
SMILES: CN(CC1CC1)C(=O)c1cc(-c2ncnc(Nc3ccc(F)c(Cl)c3)n2)ccn1 [Example B204]

- logP (pH 2.7): 3.4
SMILES: CCCN(C)C(=S)c1cc(-c2ncnc(Nc3ccc(F)c(C(F)F)c3)n2)ccn1 [Example B334]

- logP (pH 2.7): 2.13
SMILES: CCN(C)C(=O)c1cc(-c2ncnc(Nc3ccsc3)n2)ccn1 [Example C17]

- logP (pH 2.7): 1.9
SMILES: CCN(CC)CC(C)NC(=O)c1cc(-c2ncnc(Nc3cccc(Cl)c3)n2)ccn1 (stereo not drawn) [Example B114]

- logP (pH 2.7): 2.75
SMILES: CN(CC(F)F)C(=O)c1cc(-c2ncnc(Nc3cccc(C(F)F)c3)n2)ccn1 [Example B371]

- logP (pH 2.7): 2.48
SMILES: CCCN(C)C(=O)c1cc(-c2ncnc(Nc3cccc(COC)c3)n2)ccn1 [Example B241]

- logP (pH 2.7): 3.02
SMILES: CCN(CC)C(=S)c1cc(-c2ncnc(Nc3ccsc3)n2)ccn1 [Example C22]

- logP (pH 2.7): 2.13
SMILES: CC(C)N(C)C(=O)c1cc(-c2ccnc(Nc3ccnc(Cl)c3)n2)ccn1 [Example A28]

- logP (pH 2.7): 2.8
SMILES: CCN(C)C(=S)c1cc(-c2ncnc(Nc3ccc(F)cc3)n2)ccn1 [Example B23]

- logP (pH 2.7): 4.41
SMILES: CC#CCON=C(C)c1cc(-c2ncnc(Nc3cccc(Cl)c3)n2)ccn1 (mixture of isomers) [Example B36]

- logP (pH 2.7): 0.92
SMILES: O=C(c1cc(Nc2nccc(-c3ccnc(C(=O)N4CCOCC4)c3)n2)ccn1)N1CCOCC1 [Example A23]

- logP (pH 2.7): 2.8
SMILES: Cc1ccc(Nc2ncnc(-c3ccnc(C(=O)N(C)CCC#N)c3)n2)cc1Cl [Example B366]

- logP (pH 2.7): 2.45
SMILES: CCCN(C)C(=O)c1cc(-c2ncnc(Nc3cccc(C#N)c3)n2)ccn1 [Example B293]

- logP (pH 2.7): 2.8
SMILES: CC(=NO)c1cc(-c2ncnc(Nc3cccc(Cl)c3)n2)ccn1 (mixture of isomers) [Example B74]

- logP (pH 2.7): 3.65
SMILES: CCCN(C)C(=S)c1cc(-c2ncnc(Nc3cccc(Cl)c3)n2)ccn1 [Example B336]

- logP (pH 2.7): 3.09
SMILES: CCCCN(C)C(=O)c1cc(-c2ncnc(Nc3cccc(F)c3)n2)ccn1 [Example B376]

- logP (pH 2.7): 3.48
SMILES: COCCNC(=O)c1cc(-c2ncnc(Nc3ccc(C)c(Cl)c3)n2)ccn1 [Example B227]

- logP (pH 2.7): 2.1
SMILES: CN(CCC#N)C(=O)c1cc(-c2ncnc(Nc3cc(F)ccc3F)n2)ccn1 [Example B237]

- logP (pH 2.7): 1.86
SMILES: CN(C)C(=O)c1cc(-c2ncnc(Nc3ccsc3)n2)ccn1 [Example C19]

- chromatographic logP (pH 2.7): 2.13
SMILES: O=C(NO)c1cc(-c2ncnc(Nc3cccc(Cl)c3)n2)ccn1 [Example B185, 4-{4-[(3-chlorophenyl)amino]-1,3,5-triazin-2-yl}-N-hydroxypyridine-2-carboxamide]

- logP (pH 2.7): 2.07
SMILES: CN(CCC#N)C(=O)c1cc(-c2ncnc(Nc3ccccc3)n2)ccn1 [Example B310]

- logP (pH 2.7): 2.13
SMILES: C=CCN(C)C(=O)c1cc(-c2ccnc(Nc3ccnc(Cl)c3)n2)ccn1 [Example A25]

- logP (pH 2.7): 3.58
SMILES: CC(=NNCC(F)(F)F)c1cc(-c2ncnc(Nc3cccc(Cl)c3)n2)ccn1 [Example B76]

- logP (pH 2.7): 3.89
SMILES: O=C(NC1CCC1)c1cc(-c2ncnc(Nc3cccc(Cl)c3)n2)ccn1 [Example B113]

- logP (pH 2.7): 3.09
SMILES: COCC(C1CC1)N(C)C(=O)c1cc(-c2ncnc(Nc3cccc(Cl)c3)n2)ccn1 (stereo not drawn) [Example B188]

- logP (pH 2.7): 3.12
SMILES: NC(=S)c1cc(-c2ncnc(Nc3cccc(Cl)c3)n2)ccn1 [Example B119]

- logP (pH 2.7): 2.04
SMILES: O=C(c1cc(-c2ncnc(Nc3cccc(Cl)c3)n2)ccn1)N1CCC(O)CC1 [Example B173]

- logP (pH 2.7): 3.15
SMILES: COC(C)C(C)N(C)C(=O)c1cc(-c2ncnc(Nc3cccc(Cl)c3)n2)ccn1 (stereo not drawn) [Example B189]

- logP [b] (pH 2.3): 2.76[b]
SMILES: COC1CCCN(C(=O)c2cc(-c3ncnc(Nc4cccc(Cl)c4)n3)ccn2)C1 (stereo not drawn) [Example B179]

- logP (pH 2.7): 2.59
SMILES: CCON(CC)C(=O)c1cc(-c2ncnc(Nc3ccsc3)n2)ccn1 [Example C31]

- logP (pH 2.7): 2.78
SMILES: CCN(C)C(=S)c1cc(-c2ncnc(Nc3cccc(OC)c3)n2)ccn1 [Example B281]

- logP (pH 2.7): 2.96
SMILES: CSc1cccc(Nc2ncnc(-c3ccnc(C(=O)N(C)CC(F)F)c3)n2)c1 [Example B372]

- logP (pH 2.7): 3.15
SMILES: CCN(CC)C(=S)c1cc(-c2ncnc(Nc3cccc(OC)c3)n2)ccn1 [Example B282]

- logP (pH 2.7): 2.86
SMILES: CN(CC(F)F)C(=O)c1cc(-c2ncnc(Nc3ccc(F)c(F)c3)n2)ccn1 [Example B382]

- logP (pH 2.7): 2.33
SMILES: O=C(NCCCN1CCCCCC1=O)c1cc(Nc2nccc(-c3ccnc(C(=O)NCCCN4CCCCCC4=O)c3)n2)ccn1 [Example A21]

- logP (pH 2.7): 3.29
SMILES: CCN(CC)C(=O)c1cc(-c2ncnc(Nc3cccc(OC(F)(F)C(F)F)c3)n2)ccn1 [Example B348]

- logP (pH 2.7): 2.58
SMILES: CN(CCC#N)C(=O)c1cc(-c2ncnc(Nc3ccc(F)c(Cl)c3)n2)ccn1 [Example B201]

The remaining lines, values behind:

SMILES: Clc1cccc(Nc2ncnc(-c3ccnc(C4=NOCCO4)c3)n2)c1 [Example B187]
- logP (pH 2.7): 2.63

SMILES: CN(C)C(=S)c1cc(-c2ncnc(Nc3cccc(C(F)F)c3)n2)ccn1 [B423]
- logP (pH 2.7): 2.66

SMILES: O=C(c1cc(Nc2nccc(-c3ccnc(C(=O)N4CCCCC4)c3)n2)ccn1)N1CCCCC1 [Example A6]
- logP (pH 2.7): 1.63

SMILES: CC(C)CN(C)C(=O)c1cc(-c2ncnc(Nc3cccc(C(F)F)c3)n2)ccn1 [Example B289]
- logP (pH 2.7): 3.04

SMILES: CCON(CC)C(=O)c1cc(-c2ncnc(Nc3cccc(C(F)F)c3)n2)ccn1 [B414]
- logP (pH 2.7): 2.88

SMILES: CN(CC1CC1)C(=O)c1cc(-c2ncnc(Nc3ccc(Cl)c(C(F)F)c3)n2)ccn1 [Example B390]
- logP (pH 2.7): 3.31

SMILES: CCN(C)C(=S)c1cc(-c2ncnc(Nc3cccc(OC(F)F)c3)n2)ccn1 [B424]
- logP (pH 2.7): 3.06

SMILES: CC(=O)Nc1cccc(Nc2ncnc(-c3ccnc(C(=O)N(C)C(C)C)c3)n2)c1 [B309]
- logP (pH 2.7): 1.81

SMILES: CN(CC(F)F)C(=O)c1cc(-c2ncnc(Nc3cccc(Cl)c3)n2)ccn1 [Example B373]
- logP (pH 2.7): 3.06

SMILES: CC(C)C(=O)O/N=C(/N)c1cc(-c2ncnc(Nc3cccc(Cl)c3)n2)ccn1 [B107]
- logP (pH 2.7): 3.69

SMILES: CCN(CC)C(=O)c1cc(-c2ncnc(Nc3ccc(F)c(C(F)F)c3)n2)ccn1 [Example B353]
- logP (pH 2.7): 2.86

SMILES: CCC(CC)NC(=O)c1cc(-c2ncnc(Nc3cccc(Cl)c3)n2)ccn1 [B63]
- logP (pH 2.7): 4.22

SMILES: O=C(c1cc(-c2ccnc(Nc3ccnc(Cl)c3)n2)ccn1)N1CCCCC1 [Example A5]
- logP (pH 2.7): 2.23

SMILES: O=C(NCC1CC1)c1cc(-c2ncnc(Nc3cccc(Cl)c3)n2)ccn1 [B99]
- logP (pH 2.7): 3.73

SMILES: CC(C)CN(C)C(=O)c1cc(-c2ncnc(Nc3cccc(F)c3)n2)ccn1 [Example B6]
- logP (pH 2.7): 2.92

SMILES: O=C(NC1CCCCC1)c1cc(-c2ncnc(Nc3cccc(Cl)c3)n2)ccn1 [B56]
- logP (pH 2.7): 4.46

SMILES: CCNC(=O)c1cc(-c2ncnc(Nc3ccc(C)c(Cl)c3)n2)ccn1 [B231]
- logP (pH 2.7): 3.55

SMILES: O=C(c1cc(-c2ncnc(Nc3ccc(F)c(Cl)c3)n2)ccn1)N1CCCC1 [B190]
- logP (pH 2.7): 3

SMILES: CCN(C)C(=O)c1cc(-c2ncnc(Nc3cccc(C(F)(F)F)c3)n2)ccn1 [Example B256]
- logP (pH 2.7): 2.86

SMILES: CN(CCC#N)C(=O)c1cc(-c2ncnc(Nc3cccc(Cl)c3)n2)ccn1 [Example B129]
- logP (pH 2.7): 2.51

SMILES: O=C(NCCC(F)(F)F)c1cc(-c2ncnc(Nc3cccc(Cl)c3)n2)ccn1 [B121]
- logP (pH 2.7): 3.73

SMILES: C=CCN(C)C(=O)c1cc(-c2ncnc(Nc3cccc(Cl)c3)n2)ccn1 [Example B127]
- logP (pH 2.7): 2.96

SMILES: COC(=O)c1cc(-c2ncnc(Nc3ccc(Cl)c(OC)c3)n2)ccn1 [B417]
- logP (pH 2.7): 2.80

SMILES: NC(=S)c1cc(-c2ncnc(Nc3cccc(F)c3)n2)ccn1 [B321]
- logP (pH 2.7): 2.57

SMILES: NC(=O)c1cc(-c2ncnc(Nc3cccc(C(F)F)c3)n2)ccn1 [B405]
- logP (pH 7.8): 2.04^[c]

SMILES: CCCN(CC)C(=O)c1cc(-c2ncnc(Nc3cccc(Cl)c3)n2)ccn1 [Example B125]
- logP (pH 2.7): 3.46

SMILES: CC1CCC(C)N1C(=O)c1cc(-c2ncnc(Nc3cccc(Cl)c3)n2)ccn1 (stereo not drawn) [Example B141]
- logP (pH 2.7): 3.64

SMILES: CCN(CC)C(=O)c1cc(-c2ncnc(Nc3cccc(COC)c3)n2)ccn1 [Example B240]
- logP (pH 2.7): 2.48

SMILES: CN(CC1CC1)C(=O)c1cc(-c2ncnc(Nc3cccc(C(F)F)c3)n2)ccn1 [Example B287]
- logP (pH 2.7): 2.82

SMILES: CCCN(C)C(=O)c1cc(-c2ncnc(Nc3ccc(F)c(C(F)F)c3)n2)ccn1 [Example B399]
- logP (pH 2.7): 2.86

SMILES: CCC(COC)NC(=O)c1cc(-c2ncnc(Nc3cccc(Cl)c3)n2)ccn1 (stereo not drawn) [B89]
- logP (pH 2.7): 3.8

SMILES: O=CNCCCNC(=O)c1cc(-c2ncnc(Nc3cccc(Cl)c3)n2)ccn1 [B178]
- logP (pH 2.7): 2.26

SMILES: Cc1ccc(Nc2ncnc(-c3ccnc(C(=O)N(C)CC4CC4)c3)n2)cc1Cl [Example B367]
- logP (pH 2.7): 3.53

SMILES: CCCN(C)C(=O)c1cc(-c2ncnc(Nc3cccc(C(F)F)c3)n2)ccn1 [Example B286]
- logP (pH 2.7): 2.73

SMILES: CN(CC1CC1)C(=O)c1cc(-c2ncnc(Nc3cccc(OC(F)F)c3)n2)ccn1 [B410]
- logP (pH 2.7): 2.98

SMILES: Cc1ccc(Nc2ncnc(-c3ccnc(C(=O)NCCCN4CCCCCC4=O)c3)n2)cc1Cl [B228]
- logP (pH 2.7): 3.44

SMILES: C#CCN(c1cccc(F)c1)c1ncnc(-c2ccnc(C(=S)N(C)CC)c2)n1 [B345]
- logP (pH 2.7): 3.25

SMILES: COc1ccc(Nc2ncnc(-c3ccnc(C(=O)N(C)CC(C)C)c3)n2)cn1 [Example C9]
- logP (pH 2.7): 2.37

SMILES: C#CCON=C(CC)c1cc(-c2ncnc(Nc3cccc(Cl)c3)n2)ccn1 (mixture of isomers) [B80]
- logP (pH 2.7): 4.73

SMILES: CN(CC1CC1)C(=O)c1cc(-c2ncnc(Nc3cccc(Cl)c3)n2)ccn1 [Example B133]
- logP (pH 2.7): 3.15

SMILES: CCON=C(C)c1cc(-c2ncnc(Nc3cccc(Cl)c3)n2)ccn1 (mixture of isomers) [B31]
- logP (pH 2.7): 4.7

SMILES: O=C1CN(C(=O)c2cc(-c3ncnc(Nc4cccc(Cl)c4)n3)ccn2)CN1 [B168]
- logP (pH 2.7): 2.15

SMILES: Cc1ccc(Nc2ncnc(-c3ccnc(C(=O)N(C)C)c3)n2)cc1Cl [Example B359]
- logP (pH 2.7): 2.71

From patent publication US20110218188A1, “SUBSTITUTED (PYRIDYL)-AZINYLAMINE DERIVATIVES AS FUNGICIDES” (priority 2008, published 2011)
